From patent US9833423B2 (KOREA RESEARCH INSTITUTE OF CHEMICAL TECHNOLOGY, priority 2011, dated 2017) come the findings set out here.

Molecules are shown by their SMILES.

The test system of one data set is Coxsackie-virus B1. Put plainly: Cytopathic effect (CPE) inhibition assay. The data set is classed as cell-based, Coxsackievirus B1. The note with it: Table 3, HeLa, 37° C., 2 days. In general terms: Damage to the host cells serves as the signal in cytopathic effect assays.
A further data set has as its system Coxsackie-virus B3. The data set is described as follows: Cytopathic effect (CPE) inhibition assay. In kind it is cell-based, Coxsackievirus B3. The settings on record: Table 3, HeLa, 37° C., 2 days.
Another data set concerns Polio-virus 3. The data set is described as follows: microbe, parasite or virus in culture. The data set is classed as cell-based, Poliovirus 3.
A further data set relates to Coxsackie-virus A24 (DN). Put plainly: Cytopathic effect (CPE) inhibition assay. The data set is classed as cell-based, Coxsackievirus A24. The settings on record: Table 3, MRC-5, 37° C., 2 days.
In another data set the test system is Coxsackie-virus B4. The data set is described as follows: Cytopathic effect (CPE) inhibition assay. The data set is classed as cell-based, Coxsackievirus B4. The note with it: Enterovirus B, HeLa37, 48 h; Table 3; HeLa, 37° C., 2 days.
In a further data set the test system is Coxsackie-virus A24 (HG). Put plainly: Cytopathic effect (CPE) inhibition assay. The data set is classed as cell-based, Coxsackievirus A24. The settings on record: Table 3, MRC-5, 37° C., 2 days.
Another data set can be described thus: in vitro. The settings on record: human, CC50.
In the next data set the test system is Polio-virus 2. Put plainly: microbe, parasite or virus in culture. The data set is classed as cell-based, Poliovirus 2. The note with it: Enterovirus C, read-out: EC50 Polio-virus 2.
Data set [1] deals with mock-infected cells (HeLa, MRC-5, RD). The settings on record: human.
A further data set concerns Rhino 15. The data set is described as follows: Multicycle CPE reduction assay. The settings on record: Enterovirus; 37° C. in HeLa cells. The data set is classed as cell-based, rhinovirus 15. How it is done:
(§1) The test compounds were evaluated for anti-picornavirus activity by a multicycle cytopathic effect (CPE) reduction assay. The antiviral activity was initially determined using an MTS [3-(4,5-dimethylthiazol-2-yl)-5-(3-carboxymethoxyphenyl)-2-(4-sulfophenyl)-2H-tetrazolium]-based CPE reduction assay.
(§2) In this regard, cells grown to confluence in 96-well plates were infected with 100 50% cell culture infective doses (CCID50) of virus. After an adsorption period of 2 hrs at 37° C., virus was removed and serial dilutions of the compounds were added. […] After removal of the medium, 90 μl of a culture medium and 10 μl of MTS-phenazine methosulfate (Promega, Leiden, The Netherlands) were added to each well. After an incubation period of 2 hrs at 37° C., the optical density (OD) of each well was read at 498 nm in a microplate reader.
(§3) CPE values for evaluating antiviral activity were calculated using the following Mathmatic Formula 3: […]
(§4) The 50% effective concentration (EC50) and the 50 cytotoxic concentration (CC50) were defined as the concentrations of compound that offered 50% protection against virus-induced CPE and that killed cells by 50%, respectively, and were calculated using logarithmic interpolation.

The subject of a further data set is Rhino 89. The data set is described as follows: Multicycle CPE reduction assay. The settings on record: Enterovirus; 37° C. in HeLa cells. In kind it is cell-based, rhinovirus 89. The procedure:
as §1, §2, §3, §4

For another data set, the system named is Rhino 70. The data set is described as follows: Multicycle CPE reduction assay. The data set is classed as cell-based, rhinovirus 70. The note with it: Enterovirus, HeLa, read-out: Rhino 70 EC50, 37° C. in HeLa cells. The procedure:
as §1, §2, §3, §4

The next data set concerns Rhino 85. The data set is described as follows: Multicycle CPE reduction assay. In kind it is cell-based, rhinovirus 85. The note with it: Enterovirus; 37° C. in HeLa cells. How it is done: as §1, §2, §3, §4
The next data set deals with Rhino 42. The data set is described as follows: Multicycle CPE reduction assay. In kind it is cell-based, rhinovirus 42. The settings on record: Enterovirus; 37° C. in HeLa cells. The procedure: as §1, §2, §3, §4
A further data set deals with Rhino 86. The data set is described as follows: Multicycle CPE reduction assay. The data set is classed as cell-based, rhinovirus 86. The note with it: Enterovirus; 37° C. in HeLa cells. The procedure:
as §1, §2, §3, §4

For a further data set, the system named is Rhino 39. Put plainly: Multicycle CPE reduction assay. The data set is classed as cell-based, rhinovirus 39. The settings on record: Enterovirus; 37° C. in HeLa cells. The procedure:
as §1, §2, §3, §4

In a further data set the test system is Coxsackie A21. Put plainly: Multicycle CPE reduction assay. In kind it is cell-based, Coxsackievirus A21. The note with it: Enterovirus C, A21, MRC5, read-out: Coxsackie A21 EC50.
The subject of another data set is Rhino 45. Put plainly: Multicycle CPE reduction assay. The data set is classed as cell-based, rhinovirus 45. The note with it: Enterovirus, HeLa, 37° C. in HeLa cells. How it is done:
as §1, §2, §3, §4

For another data set, the system named is Echo 9. The data set is described as follows: Multicycle CPE reduction assay. In kind it is cell-based, echovirus 9. The note with it: Enterovirus B, MRC5; 37° C. in MRC-5 cells. How it is done: as §1, §2, §3, §4
A further data set concerns Rhino 14. Put plainly: Multicycle CPE reduction assay. The data set is classed as cell-based, rhinovirus 14. The settings on record: Enterovirus; 37° C. in HeLa cells. How it is done: as §1, §2, §3, §4
The next data set concerns Echo 11. Put plainly: Multicycle CPE reduction assay. In kind it is cell-based, echovirus 11. The settings on record: Enterovirus B; 37° C. in BGM cells. The procedure:
as §1, §2, §3, §4

For a further data set, the system named is Rhino 59. Put plainly: Multicycle CPE reduction assay. In kind it is cell-based, rhinovirus 59. The settings on record: Enterovirus; 37° C. in HeLa cells.
Another data set concerns Rhino 63. Put plainly: Multicycle CPE reduction assay. The settings on record: Enterovirus; 37° C. in HeLa cells. In kind it is cell-based, rhinovirus 63. The procedure: as §1, §2, §3, §4
The next data set concerns Rhino 29. Put plainly: Multicycle CPE reduction assay. The data set is classed as cell-based, rhinovirus 29. The settings on record: Enterovirus; 37° C. in HeLa cells. How it is done: as §1, §2, §3, §4
The nature of data set [2]: Cytotoxicity (CC50), MTS-based multicycle CPE reduction assay, Experimental Example 2. The data set is classed as cell-based. The settings on record: Table 5. How it is done: as §1, §2
(§5) CPE values for evaluating cytotoxicity were calculated using the following Mathmatic Formula 4: […]
as §4

A further data set relates to uninfected cell cultures. The description is as above. In kind it is cell-based. The settings on record: Table 5, listed as Ex. 74. The procedure: as §1, §2, §5, §4
A further data set relates to Rhino 72. Put plainly: Multicycle CPE reduction assay. In kind it is cell-based, rhinovirus 72. The settings on record: Enterovirus; 37° C. in HeLa cells. The procedure: as §1, §2, §3, §4
A further data set has as its system Rhino 41. Put plainly: Multicycle CPE reduction assay. In kind it is cell-based, rhinovirus 41. The settings on record: Enterovirus; 37° C. in HeLa cells. The procedure:
as §1, §2, §3, §4

A further data set relates to Coxsackie A16. The data set is described as follows: Multicycle CPE reduction assay. In kind it is cell-based, Coxsackievirus A16. The note with it: Enterovirus A, A16, MRC5; 37° C. in MRC-5 cells. The procedure:
as §1, §2, §3, §4

For the next data set, the system named is Entero 71. Put plainly: Multicycle CPE reduction assay. The data set is classed as cell-based, enterovirus 71. The note with it: Enterovirus A; 37° C. in RD cells. How it is done: as §1, §2, §3, §4
The next data set relates to Polio 1. Put plainly: microbe, parasite or virus in culture. The data set is classed as cell-based, poliovirus 1. The settings on record: Enterovirus C, BGM, read-out: Polio 1 EC50.
A further data set has as its system Rhino 2. The data set is described as follows: Multicycle CPE reduction assay. The data set is classed as cell-based, rhinovirus 2. The note with it: Enterovirus; 37° C. in HeLa cells. How it is done:
as §1, §2, §3, §4

The next data set deals with Rhino 9. Put plainly: Multicycle CPE reduction assay. The data set is classed as cell-based, rhinovirus 9. The note with it: Enterovirus; 37° C. in HeLa cells. The procedure: as §1, §2, §3, §4

The EC50 is the midpoint of the concentration-response curve. For `CCCCC(=O)NC1(c2ccc(C(C)C)cc2OC(=O)CCCC)C(=O)c2ccccc2C1=O` [Example 49, 2-(1,3-Dioxo-2-pentanamido-2,3-dihydro-1H-inden-2-yl)-5-isopropylphenyl pentanoate], the 50% effective concentration (EC50) in the data set with Coxsackie-virus B1 (Enterovirus B, HeLa37, 48 h, read-out: EC50 Coxsackie-virus B1) was < 0.01 µg/mL; with Coxsackie-virus B3 (Enterovirus B, HeLa37, 48 h, read-out: EC50 Coxsackie-virus B3) it was < 0.01 µg/mL; with Polio-virus 3 (Enterovirus C, HeLa37, 48 h, read-out: EC50 Polio-virus 3), < 1 µg/mL; in the data set on Coxsackie-virus A24 (DN) (Enterovirus C, MRC5, 48 h), < 1 µg/mL; with Coxsackie-virus B4, < 0.01 µg/mL; with Coxsackie-virus A24 (HG) (Enterovirus C, MRC5, 48 h) it was < 1 µg/mL. Moreover, in the data set with Polio-virus 2, the concentration giving a half-maximal response (EC50) is < 1 µg/mL. Further, the CC50 in “in vitro” was > 100 µg/mL.

Broadly, the melting point is the temperature, or range, at which the solid turns liquid. On to `CCCCC(=O)NC1(c2ccc(C(C)C)cc2OC(=O)CCCC)C(=O)c2ccccc2C1=O` [Example 69, 2-(1,3-Dioxo-2-pentanamido-2,3-dihydro-1H-inden-2-yl)-5-isopropylphenyl pentanoate], for which the melting point lay within 128 to 130 °C. Besides, the “EC50 Coxsackie-virus B1” value with Coxsackie-virus B1 is <0.01 µg/mL. Further, the “EC50 Coxsackie-virus B3” value with Coxsackie-virus B3 was <0.01 µg/mL. In addition, the “EC50 Polio-virus 3” value with Polio-virus 3 (Table 3, HeLa, 37° C., 2 days) is <1.0 µg/mL. Besides, in the data set with Coxsackie-virus A24 (DN), the “EC50 Coxsackie-virus A24 (DN)” value was <1.0 µg/mL. Besides, the CC50 in data set [1] was >117 µg/mL. Further, the “EC50 Coxsackie-virus A24 (HG)” value in the data set with Coxsackie-virus A24 (HG) was <1.0 µg/mL.

As for `CC(=O)Oc1cc(C)ccc1C1(OC(C)=O)C(=O)c2ccccc2C1=O` [Example 74, 2-2-Acetoxy-1,3-dioxo-2,3-dihydro-1H-inden-2-yl], the melting point lay within 145 to 147 °C. Also, in the data set with Rhino 15, the EC50 was > 50 µM. In addition, in the data set with Rhino 89, the half-maximal effective concentration (EC50) is > 50 µM. For the same molecule, in the data set on Rhino 70, the EC50 is > 50 µM. For the same molecule, the concentration for a half-maximal effect (EC50) in the data set with Rhino 85 is > 50 µM. In the data set on Rhino 42, the concentration giving a half-maximal response (EC50) was > 50 µM. In the data set on Rhino 86, this molecule gave an EC50 of 26 ± 18 µM. In the data set on Rhino 39, the EC50 was > 50 µM. Besides, in the data set with Coxsackie A21, the 50% effective concentration (EC50) is 26 ± 0.34 µM. For the same molecule, the EC50 in the data set on Rhino 45 is > 50 µM. In the data set with Echo 9, this molecule had an EC50 of 0.61 ± 0.038 µM. For the same molecule, the half-maximal effective concentration (EC50) in the data set with Rhino 14 is > 50 µM. In the data set on Echo 11, this molecule showed a 50% effective concentration (EC50) of 0.7 ± 0.24 µM. In addition, the 50% effective concentration (EC50) in the data set on Rhino 59 was > 50 µM. Moreover, in the data set on Rhino 63, the EC50 is > 50 µM. Moreover, in the data set on Rhino 29, the EC50 was > 50 µM. Besides, in [2], the CC50 at 3 days was ≥ 100 µM. In addition, in the data set with uninfected cell cultures, the CC50 is > 100 µM. Moreover, the EC50 in the data set with Rhino 72 is > 50 µM. In the data set with Rhino 41, the EC50 was > 50 µM. This molecule returned an EC50 in the data set on Coxsackie A16 of 13 ± 0.32 µM. Moreover, in the data set on Entero 71, the EC50 came out at 3.3 ± 1.6 µM. For the same molecule, in the data set with Polio 1, the EC50 came to 20 ± 14 µM. Besides, the EC50 in the data set with Rhino 2 is > 50 µM. In the data set on Rhino 9, the EC50 was > 50 µM.
